Laboratory results from patent publication US10590140B2, “Tetrahydropyrimidodiazepine and dihydropyridodiazepine compounds for treating pain and pain related conditions” (ESTEVE PHARMACEUTICALS, S.A., priority 2016, dated 2020).
Like-named read-outs stand apart in the source and are kept apart here.

Experiments:
[1] = molecular target: human α2δ-1 subunit of Cav2.2 calcium channel (Homo sapiens (Human), UniProt P54289); test: Binding assay to human α2δ-1 subunit of Cav2.2 calcium channel ([3H]-Gabapentin); details: read-out: Ki (nM) α2δ-1
How it was run: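 Radioactivity on dried GF/C filters quantified by scintillation after filtration and three cold Tris-HCl (pH 7.4) washes. Incubation ran 60 min at 27° C with [3H]-gabapentin; 10 μM pregabalin gave nonspecific binding.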

[2] = molecular target: human norepinephrine transporter (NET) (Homo sapiens (Human), UniProt P23975); test: Binding assay to human norepinephrine transporter (NET) ([3H]-Nisoxetin); details: Table 2, dual compounds; [3H]-Nisoxetin binding
Experimental: Binding Assay to Human Norepinephrine Transporter (NET).
Human norepinephrine transporter (NET) enriched membranes (5 μg) were incubated with 5 nM of radiolabeled [3H]-Nisoxetin in assay buffer containing 50 mM Tris-HCl, 120 mM NaCl, 5 mM KCl, pH 7.4.
NSB (non specific binding) was measured by adding 1 μM. After 60 min incubation at 4° C., binding reaction was terminated by filtering through Multiscreen GF/C (Millipore) presoaked in 0.5% polyethyleneimine in Vacuum Manifold Station, followed by 3 washes with ice-cold filtration buffer containing 50 mM Tris-HCl, 0.9% NaCl, pH 7.4.
Filter plates were dried at 60° C. for 1 hour and 30 μl of scintillation cocktail were added to each well before radioactivity reading.

[3] = Table 2, dual compounds, [3H]-Gabapentin binding
[4] = binding to α2δ-1, [3H]-Gabapentin

Sequence of human norepinephrine transporter (NET) (P23975 whole entry): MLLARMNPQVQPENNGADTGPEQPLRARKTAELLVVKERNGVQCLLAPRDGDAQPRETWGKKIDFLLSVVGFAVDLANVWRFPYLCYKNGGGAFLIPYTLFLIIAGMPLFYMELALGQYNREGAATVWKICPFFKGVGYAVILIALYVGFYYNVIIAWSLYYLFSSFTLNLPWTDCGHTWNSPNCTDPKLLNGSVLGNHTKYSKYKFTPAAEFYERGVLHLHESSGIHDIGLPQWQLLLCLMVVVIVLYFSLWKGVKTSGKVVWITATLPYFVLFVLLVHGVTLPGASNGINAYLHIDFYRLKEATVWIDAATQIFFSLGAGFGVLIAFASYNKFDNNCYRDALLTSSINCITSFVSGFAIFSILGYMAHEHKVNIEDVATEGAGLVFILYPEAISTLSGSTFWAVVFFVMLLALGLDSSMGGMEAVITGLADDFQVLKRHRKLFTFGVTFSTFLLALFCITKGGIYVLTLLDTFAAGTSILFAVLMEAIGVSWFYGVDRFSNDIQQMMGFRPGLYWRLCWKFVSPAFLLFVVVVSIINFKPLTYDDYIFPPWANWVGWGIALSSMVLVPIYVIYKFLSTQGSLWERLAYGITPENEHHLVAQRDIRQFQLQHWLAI
Sequence of human α2δ-1 subunit of Cav2.2 calcium channel (P54289 25-1103): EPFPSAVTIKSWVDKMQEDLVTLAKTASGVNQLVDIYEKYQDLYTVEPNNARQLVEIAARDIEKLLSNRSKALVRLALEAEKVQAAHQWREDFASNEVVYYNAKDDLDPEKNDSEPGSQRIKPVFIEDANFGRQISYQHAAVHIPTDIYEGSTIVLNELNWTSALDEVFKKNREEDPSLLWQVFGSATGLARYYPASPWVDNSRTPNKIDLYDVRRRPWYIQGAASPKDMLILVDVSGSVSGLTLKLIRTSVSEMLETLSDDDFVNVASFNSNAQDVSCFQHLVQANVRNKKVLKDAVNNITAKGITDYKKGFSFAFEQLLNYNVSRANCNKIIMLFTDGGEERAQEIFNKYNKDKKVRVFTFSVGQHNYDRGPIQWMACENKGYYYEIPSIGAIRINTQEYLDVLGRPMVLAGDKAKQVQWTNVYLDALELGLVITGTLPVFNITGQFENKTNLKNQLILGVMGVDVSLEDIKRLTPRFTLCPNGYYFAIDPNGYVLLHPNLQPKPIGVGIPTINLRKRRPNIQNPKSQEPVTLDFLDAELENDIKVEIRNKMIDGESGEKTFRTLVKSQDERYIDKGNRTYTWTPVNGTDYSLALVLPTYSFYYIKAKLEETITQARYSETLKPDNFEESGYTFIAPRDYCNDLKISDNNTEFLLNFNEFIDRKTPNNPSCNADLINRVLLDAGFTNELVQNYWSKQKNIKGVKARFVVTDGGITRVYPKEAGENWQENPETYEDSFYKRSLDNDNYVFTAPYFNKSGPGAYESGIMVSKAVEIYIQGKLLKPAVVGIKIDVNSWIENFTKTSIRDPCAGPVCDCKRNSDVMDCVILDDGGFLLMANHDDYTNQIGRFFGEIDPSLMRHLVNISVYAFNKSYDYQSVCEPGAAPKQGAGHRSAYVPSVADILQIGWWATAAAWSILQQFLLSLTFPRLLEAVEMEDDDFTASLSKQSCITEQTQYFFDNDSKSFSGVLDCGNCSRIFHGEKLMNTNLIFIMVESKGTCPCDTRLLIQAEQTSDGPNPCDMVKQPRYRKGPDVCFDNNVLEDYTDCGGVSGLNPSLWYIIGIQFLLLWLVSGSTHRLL

SMILES	Ki [1, 3]	Ki [1, 4]	Ki [2]
CCNc1ncc2c(n1)N(C)CCN(Cc1cccc(COC(CCNC)c3ccccc3)c1)C2=O (stereo not drawn) [Example 406, 2-(ethylamino)-9-methyl-6-(3-((3-(methylamino)-1-phenylpropoxy)methyl)benzyl)-6,7,8,9-tetrahydro-5H-pyrimido[4,5-e][1,4]diazepin-5-one]	> 3000 nM	> 3000 nM	100 to 500 nM
CCNc1ncc2c(n1)N(C)CCN(c1cccc(-n3cc(CN4CCCCC4)nn3)c1)C2=O [Example 281, 2-(ethylamino)-9-methyl-6-(3-(4-(piperidin-1-ylmethyl)-1H-1,2,3-triazol-1-yl)phenyl)-6,7,8,9-tetrahydro-5H-pyrimido[4,5-e][1,4]diazepin-5-one]	100 to 500 nM	100 to 500 nM	100 to 500 nM
CCNc1ncc2c(n1)N(C)CCN(c1ccc(COC(CNC)c3ccccc3)cc1)C2=O (stereo not drawn) [Example 340, 2-(ethylamino)-9-methyl-6-(4-((2-(methylamino)-1-phenylethoxy)methyl)phenyl)-6,7,8,9-tetrahydro-5H-pyrimido[4,5-e][1,4]diazepin-5-one]	> 3000 nM	> 3000 nM	< 100 nM
CCNc1ncc2c(n1)N(C)CCN(Cc1ccc(OC(CNC)c3ccccc3)cc1)C2=O (stereo not drawn) [Example 201, 2-(ethylamino)-9-methyl-6-(4-(2-(methylamino)-1-phenylethoxy)benzyl)-6,7,8,9-tetrahydro-5H-pyrimido[4,5-e][1,4]diazepin-5-one]	> 3000 nM	> 3000 nM	< 100 nM
CNCC[C@H](OCc1cccc(N2CCN(C)c3nc(SC)ncc3C2=O)c1)c1cccs1 [Example 210, (S)-9-methyl-6-(3-((3-(methylamino)-1-(thiophen-2-yl)propoxy)methyl)phenyl)-2-(methylthio)-6,7,8,9-tetrahydro-5H-pyrimido[4,5-e][1,4]diazepin-5-one]	> 3000 nM	> 3000 nM	100 to 500 nM
CCNc1ncc2c(n1)N(C)CCN(c1cccc(CO[C@H](CCNC)c3ccccc3)c1)C2 [Example 203, (R)—N-ethyl-9-methyl-6-(3-((3-(methylamino)-1-phenylpropoxy)methyl)phenyl)-6,7,8,9-tetrahydro-5H-pyrimido[4,5-e][1,4]diazepin-2-amine]	500 to 3000 nM	500 to 3000 nM	500 to 1000 nM
CCNc1ncc2c(n1)N(C)CCN(Cc1cccc(COC(CNC)c3ccccc3)c1)C2=O (stereo not drawn) [Example 411, 2-(ethylamino)-9-methyl-6-(3-((2-(methylamino)-1-phenylethoxy)methyl)benzyl)-6,7,8,9-tetrahydro-5H-pyrimido[4,5-e][1,4]diazepin-5-one]	> 3000 nM	> 3000 nM	500 to 1000 nM
CSc1ncc2c(n1)N(C)CCN(c1cccc(COC3(c4ccccc4)CCNCC3)c1)C2=O [Example 179, 9-methyl-2-(methylthio)-6-(3-(((4-phenylpiperidin-4-yl)oxy)methyl)phenyl)-6,7,8,9-tetrahydro-5H-pyrimido[4,5-e][1,4]diazepin-5-one]	> 3000 nM	> 3000 nM	> 1000 nM
CNCC[C@H](Oc1ccc(CN2CCN(C)c3nc(N(C)C)ncc3C2=O)cc1)c1cccs1 [Example 419, (S)-2-(dimethylamino)-9-methyl-6-(4-(3-(methylamino)-1-(thiophen-2-yl)propoxy)benzyl)-6,7,8,9-tetrahydro-5H-pyrimido[4,5-e][1,4]diazepin-5-one]	100 to 500 nM	100 to 500 nM	100 to 500 nM
CNCCC(OCc1ccc(N2CCN(C)c3nc(SC)ncc3C2=O)cc1)c1cccs1 (stereo not drawn) [Example 328, 9-methyl-6-(4-((3-(methylamino)-1-(thiophen-2-yl)propoxy)methyl)phenyl)-2-(methylthio)-6,7,8,9-tetrahydro-5H-pyrimido[4,5-e][1,4]diazepin-5-one]	> 3000 nM	> 3000 nM	< 100 nM
CCNc1ncc2c(n1)N(C)CCN(c1cccc(CO[C@H](CCN(C)C)c3ccccc3)c1)C2=O [Example 236, (R)-6-(3-((3-(Dimethylamino)-1-phenylpropoxy)methyl)phenyl)-2-(ethylamino)-9-methyl-6,7,8,9-tetrahydro-5H-pyrimido[4,5-e][1,4]diazepin-5-one]	500 to 3000 nM	500 to 3000 nM	500 to 1000 nM
CNCC[C@@H](OCc1cccc(N2CCN(C)c3nc(NC)ncc3C2=O)c1)c1ccccc1 [Example 197, (R)-9-methyl-2-(methylamino)-6-(3-((3-(methylamino)-1-phenylpropoxy)methyl)phenyl)-6,7,8,9-tetrahydro-5H-pyrimido[4,5-e][1,4]diazepin-5-one]	500 to 3000 nM	500 to 3000 nM	500 to 1000 nM
CNCC[C@H](Oc1ccc(CN2CCN(C)c3cc(OC)ncc3C2=O)cc1)c1cccs1 [Example 385, (S)-8-methoxy-1-methyl-4-(4-(3-(methylamino)-1-(thiophen-2-yl)propoxy)benzyl)-1,2,3,4-tetrahydro-5H-pyrido[4,3-e][1,4]diazepin-5-one]	100 to 500 nM	100 to 500 nM	100 to 500 nM
CNCCC(OCc1cccc(N2CCN(C)c3nc(SC)ncc3C2=O)c1)c1ccccc1 (stereo not drawn) [Example 163, 9-methyl-6-(3-((3-(methylamino)-1-phenylpropoxy)methyl)phenyl)-2-(methylthio)-6,7,8,9-tetrahydro-5H-pyrimido[4,5-e][1,4]diazepin-5-one]	500 to 3000 nM	500 to 3000 nM	100 to 500 nM
CCNc1ncc2c(n1)N(C)CCN(Cc1ccc(O[C@@H](CCNC)c3ccccc3)cc1)C2=O [Example 414, (S)-2-(ethylamino)-9-methyl-6-(4-(3-(methylamino)-1-phenylpropoxy)benzyl)-6,7,8,9-tetrahydro-5H-pyrimido[4,5-e][1,4]diazepin-5-one]	500 to 3000 nM	500 to 3000 nM	< 100 nM
CNCCC(Oc1ccc(CN2CCN(C)c3nc(C)ncc3C2=O)cc1)c1ccccc1 (stereo not drawn) [Example 425, 2,9-dimethyl-6-(4-(3-(methylamino)-1-phenylpropoxy)benzyl)-6,7,8,9-tetrahydro-5H-pyrimido[4,5-e][1,4]diazepin-5-one]	> 3000 nM	> 3000 nM	< 100 nM
CNCC[C@@H](OCc1cccc(N2CCN(C)c3ncncc3C2=O)c1)c1ccccc1 [Example 207, (R)-9-methyl-6-(3-((3-(methylamino)-1-phenylpropoxy)methyl)phenyl)-6,7,8,9-tetrahydro-5H-pyrimido[4,5-e][1,4]diazepin-5-one]	500 to 3000 nM	500 to 3000 nM	500 to 1000 nM
CCNc1ncc2c(n1)N(C)CCN(c1cccc(-n3cnc(CN(C)CCc4ccccc4)c3)c1)C2=O [Example 254, 2-(ethylamino)-9-methyl-6-(3-(4-((methyl(phenethyl)amino)methyl)-1H-imidazol-1-yl)phenyl)-6,7,8,9-tetrahydro-5H-pyrimido[4,5-e][1,4]diazepin-5-one]	500 to 3000 nM	500 to 3000 nM	500 to 1000 nM
CNCC(OCc1ccc(N2CCN(C)c3nc(C)ncc3C2=O)cc1)c1ccccc1 (stereo not drawn) [Example 355, 2,9-dimethyl-6-(4-((2-(methylamino)-1-phenylethoxy)methyl)phenyl)-6,7,8,9-tetrahydro-5H-pyrimido[4,5-e][1,4]diazepin-5-one]	> 3000 nM	> 3000 nM	< 100 nM
CCNc1cc2c(cn1)C(=O)N(Cc1ccc(O[C@@H](CCNC)c3cccs3)cc1)CCN2C [Example 383, (S)-8-(ethylamino)-1-methyl-4-(4-(3-(methylamino)-1-(thiophen-2-yl)propoxy)benzyl)-1,2,3,4-tetrahydro-5H-pyrido[4,3-e][1,4]diazepin-5-one]	100 to 500 nM	100 to 500 nM	100 to 500 nM
CNCC[C@@H](OCc1cccc(N2CCN(C)c3nc(SC)ncc3C2=O)c1)c1ccccc1 [Example 164, (R)-9-methyl-6-(3-((3-(methylamino)-1-phenylpropoxy)methyl)phenyl)-2-(methylthio)-6,7,8,9-tetrahydro-5H-pyrimido[4,5-e][1,4]diazepin-5-one]	100 to 500 nM	100 to 500 nM	100 to 500 nM
CCNc1ncc2c(n1)N(C)CCN(c1cccc(OC(CN(C)C)c3ccccc3)c1)C2=O (stereo not drawn) [Example 239, 6-(3-(2-(dimethylamino)-1-phenylethoxy)phenyl)-2-(ethylamino)-9-methyl-6,7,8,9-tetrahydro-5H-pyrimido[4,5-e][1,4]diazepin-5-one]	> 3000 nM	> 3000 nM	500 to 1000 nM
CNCC[C@H](Oc1ccc(CN2CCN(C)c3cc(C)ncc3C2=O)cc1)c1cccs1 [Example 308, (S)-1,8-dimethyl-4-(4-(3-(methylamino)-1-(thiophen-2-yl)propoxy)benzyl)-1,2,3,4-tetrahydro-5H-pyrido[4,3-e][1,4]diazepin-5-one]	100 to 500 nM	100 to 500 nM	100 to 500 nM
CNCCC(Oc1cccc(N2CCN(C)c3nc(SC)ncc3C2=O)c1)c1ccccc1 (stereo not drawn) [Example 151, 9-methyl-6-(3-(3-(methylamino)-1-phenylpropoxy)phenyl)-2-(methylthio)-6,7,8,9-tetrahydro-5H-pyrimido[4,5-e][1,4]diazepin-5-one]	500 to 3000 nM	500 to 3000 nM	< 100 nM
